A value given as a limit tells only on which side of the number the result lay.

Holding throughout (assay type): cell-based
The target of test [1] is T1, STAT3 (Homo sapiens, UniProt P40763).
T1 construct: This cell line is a clone created by using CRISPR-Cas9 to fuse HiBiT to the 3′ end of STAT3 in HeLa cells; host or cells: STAT3-HiBiT KI HeLa cell line (CRISPR-Cas9 knock-in clone)
Briefly: HiBiT assay, STAT3 degradation in STAT3-HiBiT KI HeLa cells. To be noted: 24 h; for DC50: read-out: STAT3 Degradation (HeLa 24 h HiBit) DC50. Here is the method:
STAT3 degradation may be determined by HiBiT assay. STAT3-HiBiT KI HeLa cell line, which is a clone created by using CRTISPR-Cas9 to fuse HiBiT to the 3′ end of STAT3 in HeLa cells, may be used for this assay. In a typical procedure, cells seeded at certain amounts of cells (e.g., 20000 cells) per well are incubated with serially diluted compounds for certain period of time (e.g., 24 hours) under certain conditions (e.g., at 37° C. with 5% CO2). At the end of treatment, Nano-Glo HiBiT Lytic Detection reagents is added to the wells and luminescence is acquired on TECAN SPARK plate reader. Untreated cells are used as control. Data points are fit with a four-parameter equation to generate a concentration-response curve. IC50 values are calculated using a nonlinear regression analysis of the mean±SD from triplicate.
STAT3-HiBiT KI HeLa cell line was purchased from Promega. This cell line is a clone created by using CRISPR-Cas9 to fuse HiBiT to the 3′ end of STAT3 in HeLa cells. DMEM medium and FBS were purchased from Gibco/Thermo Fisher Scientific. STAT3 degradation was determined based on quantification of luminescent signal using Nano-Glo HiBiT Lytic Detection System. In a typical procedure, cells seeded at 20000 cells per well in 96-well white plates (Corning) were incubated with serially diluted compounds for 24 hours at 37° C. with 5% CO2. At the end of treatment, Nano-Glo HiBiT Lytic Detection reagents was added to the wells and luminescence was acquired on TECAN SPARK plate reader. Untreated cells were used as control. Data points were fit with a four-parameter equation to generate a concentration-response curve. IC50 values were calculated using a nonlinear regression analysis of the mean±SD from triplicate.
Background: HiBiT is a short tag that completes a luciferase, so light tracks the accessible tagged protein.

For test [2], the system named is SU-DHL-1 cells. Put plainly: CellTiter-Glo 2.0 cell viability assay, SU-DHL-1. Particulars: Homo sapiens, 96 h, 4 days. The method, then: (§1) For example, cell viability may be determined by CellTiter-Glo 2.0 Cell Viability Assay. In a typical procedure, cells seeded at certain amounts of cells (e.g., 1000 cells) per well are incubated with serially diluted compounds for certain period (e.g., 4 days) under certain conditions (e.g., at 37° C. with 5% CO2). At the end of treatment, CellTiter-Glo 2.0 is added to the wells and luminescence is acquired on TECAN SPARK plate reader. Untreated cells are used as control, Data points are fit with an equation (e.g., a four-parameter equation) to generate a concentration-response curve. IC50 values are calculated using a nonlinear regression analysis of the mean±SD from triplicate.
(§2) SU-DHL-1 and SUP-M2 cell viability was determined by CellTiter-Glo 2.0 Cell Viability Assay (Promega). SU-DHL-1 cell line was purchased from ATCC (Manassas, VA) and SUP-M2 (ACC-509) was purchased from DSMZ (Germany). RPMI 1640 medium and fetal bovine serum (FBS) were purchased from Gibco/Thermo Fisher Scientific. In a typical procedure, cells seeded at 1000 cells per well in 384-well white plates (Corning) were incubated with serially diluted compounds for 4 days at 37° C. with 5% C02. At the end of treatment, CellTiter-Glo 2.0 was added to the wells and luminescence was acquired on TECAN SPARK plate reader. Untreated cells were used as control. Data points were fit with a four-parameter equation to generate a concentration-response curve. IC50 values were calculated using a nonlinear regression analysis of the mean±SD from triplicate.

Test [3] deals with SUP-M2 cells. Briefly: CellTiter-Glo 2.0 cell viability assay, SUP-M2. Particulars: SUP-M2, 96 h, 4 days. Here is the method:
as §1, §2
A general note: Cellular ATP, detected with luciferase, serves as a proxy for viable cell number.

T1 sequence (P40763 whole entry): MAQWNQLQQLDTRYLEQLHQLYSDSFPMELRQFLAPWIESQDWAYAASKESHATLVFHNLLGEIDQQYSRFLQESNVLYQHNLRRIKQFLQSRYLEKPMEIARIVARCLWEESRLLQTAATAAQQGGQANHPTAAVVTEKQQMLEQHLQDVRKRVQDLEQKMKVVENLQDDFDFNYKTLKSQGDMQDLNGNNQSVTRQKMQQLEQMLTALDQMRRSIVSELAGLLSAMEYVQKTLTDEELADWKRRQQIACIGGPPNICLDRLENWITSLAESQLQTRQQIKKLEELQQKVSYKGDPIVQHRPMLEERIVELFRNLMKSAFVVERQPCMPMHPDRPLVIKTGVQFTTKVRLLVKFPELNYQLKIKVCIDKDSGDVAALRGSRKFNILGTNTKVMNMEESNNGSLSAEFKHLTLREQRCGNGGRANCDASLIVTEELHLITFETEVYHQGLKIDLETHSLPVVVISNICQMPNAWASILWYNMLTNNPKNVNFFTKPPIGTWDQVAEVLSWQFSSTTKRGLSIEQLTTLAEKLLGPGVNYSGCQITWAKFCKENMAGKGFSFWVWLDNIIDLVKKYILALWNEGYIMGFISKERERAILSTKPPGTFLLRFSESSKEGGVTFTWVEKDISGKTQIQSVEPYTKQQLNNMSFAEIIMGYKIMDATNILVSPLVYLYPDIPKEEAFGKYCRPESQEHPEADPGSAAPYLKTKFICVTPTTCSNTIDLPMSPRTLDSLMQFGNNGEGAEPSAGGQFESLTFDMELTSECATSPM

Usually Dmax stands for the greatest extent of degradation seen. Broadly, the DC50 is the concentration at which degradation of the target reaches its halfway point. By IC50 is commonly meant the concentration that inhibits the measured activity by half. In the case of `CC(=O)N1CC[C@H]2CC[C@@H](C(=O)N[C@@H](CCC(N)=O)COc3cccc(CCCc4cn([C@H](C(=O)N5C[C@H](O)C[C@H]5C(=O)N[C@@H](CN5CCOCC5)c5ccc(-c6scnc6C)cc5)C(C)(C)C)nn4)c3Cl)N2C(=O)[C@@H](NC(=O)c2cc3cc(C(=O)P(=O)(O)O)ccc3[nH]2)C1` [Compound 5, (2-(((5S,8S,10aR)-3-acetyl-8-(((S)-5-amino-1-(2-chloro-3-(3-(1-((S)-1-((2S,4R)-4-hydroxy-2-(((R)-1-(4-(4-methylthiazol-5-yl)phenyl)-2-morpholinoethyl)carbamoyl)pyrrolidin-1-yl)-3,3-dimethyl-1-oxobutan-2-yl)-1H-1,2,3-triazol-4-yl)propyl)phenoxy)-5-oxopentan-2-yl)carbamoyl)-6-oxodecahydropyrrolo[1,2-a][1,5]diazocin-5-yl)carbamoyl)-1H-indole-5-carbonyl)phosphonic acid], in test [1], the Dmax at 1 µM is over 80% and the DC50 was 0.01 to 0.1 µM. The IC50 in test [2] is 0.01 to 0.1 µM. The same molecule returned an IC50 in test [3] of 0.01 to 0.1 µM.
Consider `CC(=O)N1CC[C@H]2CC[C@@H](C(=O)N[C@@H](CCC(N)=O)COc3cccc(CCCc4cn(C[C@H](NC(=O)[C@@H]5C[C@@H](O)CN5C(=O)[C@@H](n5cc(C6CC6)nn5)C(C)(C)C)c5ccc(-c6scnc6C)cc5)nn4)c3Cl)N2C(=O)[C@@H](NC(=O)c2cc3cc(C(=O)P(=O)(O)O)ccc3[nH]2)C1` [Compound 6, (2-(((5S,8S,10aR)-3-acetyl-8-(((S)-5-amino-1-(2-chloro-3-(3-(1-((R)-2-((2S,4R)-1-((S)-2-(4-cyclopropyl-1H-1,2,3-triazol-1-yl)-3,3-dimethylbutanoyl)-4-hydroxypyrrolidine-2-carboxamido)-2-(4-(4-methylthiazol-5-yl)phenyl)ethyl)-1H-1,2,3-triazol-4-yl)propyl)phenoxy)-5-oxopentan-2-yl)carbamoyl)-6-oxodecahydropyrrolo[1,2-a][1,5]diazocin-5-yl)carbamoyl)-1H-indole-5-carbonyl)phosphonic acid], for which, in test [1], the Dmax at 1 µM is over 80% and the DC50 is under 0.01 µM. Further, in test [2], the half-maximal inhibitory concentration (IC50) is 0.01 to 0.1 µM. In addition, the IC50 in test [3] lay within 0.01 to 0.1 µM.
In test [1], `CC(=O)N1CC[C@H]2CC[C@@H](C(=O)N[C@@H](CCC(N)=O)COc3cccc(CCCCNC(=O)C[C@H](NC(=O)[C@@H]4C[C@@H](O)CN4C(=O)[C@@H](n4cc(C5CC5)nn4)C(C)(C)C)c4ccc(-c5scnc5C)cc4)c3Cl)N2C(=O)[C@@H](NC(=O)c2cc3cc(C(=O)P(=O)(O)O)ccc3[nH]2)C1` [Compound 7, (2-(((5S,8S,10aR)-3-acetyl-8-(((S)-5-amino-1-(2-chloro-3-(4-((S)-3-((2S,4R)-1-((S)-2-(4-cyclopropyl-1H-1,2,3-triazol-1-yl)-3,3-dimethylbutanoyl)-4-hydroxypyrrolidine-2-carboxamido)-3-(4-(4-methylthiazol-5-yl)phenyl)propanamido)butyl)phenoxy)-5-oxopentan-2-yl)carbamoyl)-6-oxodecahydropyrrolo[1,2-a][1,5]diazocin-5-yl)carbamoyl)-1H-indole-5-carbonyl)phosphonic acid] yielded a Dmax at 1 µM of over 80%. For the same molecule, the DC50 in test [1] is under 0.01 µM. For the same molecule, the half-inhibitory concentration (IC50) in test [2] was 0.01 to 0.1 µM; in test [3], under 0.01 µM.
For `Cc1ncsc1-c1ccc([C@H](C)NC(=O)[C@@H]2C[C@@H](O)CN2C(=O)[C@@H](n2cc(CCC(=O)N3CC[C@H]4CC[C@@H](C(=O)N[C@@H](CCC(N)=O)C(=O)NCc5cccc(Cl)c5)N4C(=O)[C@@H](NC(=O)c4cc5cc(C(=O)P(=O)(O)O)ccc5[nH]4)C3)nn2)C(C)(C)C)cc1` [Compound 8, (2-(((5S,8S,10aR)-8-(((S)-5-amino-1-((3-chlorobenzyl)amino)-1,5-dioxopentan-2-yl)carbamoyl)-3-(3-(1-((S)-1-((2S,4R)-4-hydroxy-2-(((S)-1-(4-(4-methylthiazol-5-yl)phenyl)ethyl)carbamoyl)pyrrolidin-1-yl)-3,3-dimethyl-1-oxobutan-2-yl)-1H-1,2,3-triazol-4-yl)propanoyl)-6-oxodecahydropyrrolo[1,2-a][1,5]diazocin-5-yl)carbamoyl)-1H-indole-5-carbonyl)phosphonic acid], in test [1], the Dmax at 1 µM was over 80% and the DC50 is 0.1 to 1 µM. The molecule also came in with an IC50 in test [2] of 0.1 to 1 µM. In test [3], this molecule yielded an IC50 of 0.01 to 0.1 µM.
In the case of `Cc1ncsc1-c1ccc([C@H](C)NC(=O)[C@@H]2C[C@@H](O)CN2C(=O)[C@@H](n2cc(CCCC(=O)N3CC[C@H]4CC[C@@H](C(=O)N[C@@H](CCC(N)=O)C(=O)NCc5cccc(Cl)c5)N4C(=O)[C@@H](NC(=O)c4cc5cc(C(=O)P(=O)(O)O)ccc5[nH]4)C3)nn2)C(C)(C)C)cc1` [Compound 9, (2-(((5S,8S,10aR)-8-(((S)-5-amino-1-((3-chlorobenzyl)amino)-1,5-dioxopentan-2-yl)carbamoyl)-3-(4-(1-((S)-1-((2S,4R)-4-hydroxy-2-(((S)-1-(4-(4-methylthiazol-5-yl)phenyl)ethyl)carbamoyl)pyrrolidin-1-yl)-3,3-dimethyl-1-oxobutan-2-yl)-1H-1,2,3-triazol-4-yl)butanoyl)-6-oxodecahydropyrrolo[1,2-a][1,5]diazocin-5-yl)carbamoyl)-1H-indole-5-carbonyl)phosphonic acid], in test [1], the Dmax at 1 µM is over 80% and the DC50 fell in the range of 0.01 to 0.1 µM. Moreover, the IC50 in test [2] was 0.01 to 0.1 µM. Also, the IC50 in test [3] lay in the range of 0.01 to 0.1 µM.
As for `Cc1ncsc1-c1ccc([C@H](C)NC(=O)[C@@H]2C[C@@H](O)CN2C(=O)[C@@H](n2cc(CCCCC(=O)N3CC[C@H]4CC[C@@H](C(=O)N[C@@H](CCC(N)=O)C(=O)NCc5cccc(Cl)c5)N4C(=O)[C@@H](NC(=O)c4cc5cc(C(=O)P(=O)(O)O)ccc5[nH]4)C3)nn2)C(C)(C)C)cc1` [Compound 10, (2-(((5S,8S,10aR)-8-(((S)-5-amino-1-((3-chlorobenzyl)amino)-1,5-dioxopentan-2-yl)carbamoyl)-3-(5-(1-((S)-1-((2S,4R)-4-hydroxy-2-(((S)-1-(4-(4-methylthiazol-5-yl)phenyl)ethyl)carbamoyl)pyrrolidin-1-yl)-3,3-dimethyl-1-oxobutan-2-yl)-1H-1,2,3-triazol-4-yl)pentanoyl)-6-oxodecahydropyrrolo[1,2-a][1,5]diazocin-5-yl)carbamoyl)-1H-indole-5-carbonyl)phosphonic acid], in test [1], the Dmax at 1 µM is over 80% and the DC50 lay within 0.01 to 0.1 µM. Moreover, the IC50 in test [2] fell in the range of 0.01 to 0.1 µM. This molecule displayed an IC50 in test [3] of 0.01 to 0.1 µM.
For the molecule `CCS(=O)(=O)c1ccc(CNC(=O)[C@H](CCC(N)=O)NC(=O)[C@@H]2CC[C@@H]3CCN(C(=O)CCCCc4cn([C@H](C(=O)N5C[C@H](O)C[C@H]5C(=O)N[C@@H](C)c5ccc(-c6scnc6C)cc5)C(C)(C)C)nn4)C[C@H](NC(=O)c4cc5cc(C(=O)P(=O)(O)O)ccc5[nH]4)C(=O)N32)cc1` [Compound 11, (2-(((5S,8S,10aR)-8-(((S)-5-amino-1-((4-(ethylsulfonyl)benzyl)amino)-1,5-dioxopentan-2-yl)carbamoyl)-3-(5-(1-((S)-1-((2S,4R)-4-hydroxy-2-(((S)-1-(4-(4-methylthiazol-5-yl)phenyl)ethyl)carbamoyl)pyrrolidin-1-yl)-3,3-dimethyl-1-oxobutan-2-yl)-1H-1,2,3-triazol-4-yl)pentanoyl)-6-oxodecahydropyrrolo[1,2-a][1,5]diazocin-5-yl)carbamoyl)-1H-indole-5-carbonyl)phosphonic acid], in test [1], the maximal degradation (Dmax) at 1 µM was over 80% and the 50% degradation concentration (DC50) is under 0.01 µM. The IC50 in test [2] is 0.01 to 0.1 µM. For the same molecule, the IC50 in test [3] was under 0.01 µM.

The record behind these values is patent US20260226086A1, “COMPOUNDS AND COMPOSITIONS AS STAT3 DEGRADERS AND USES THEREOF” (REGENTS OF THE UNIVERSITY OF MICHIGAN, priority 2023, published 2026).
